“Also recorded” adds a separate entry of the source. Positions of bridges follow the written chain, without caps; N, C: chain ends. Non-standard residues stand in square brackets, D forms with d. Residues, ends and D or L forms follow the SMILES beside them. Pro(cis-4-Trz(4-CH2CH2Ph)) = O=C(O)[C@@H]1C[C@H](n2cc(CCc3ccccc3)nn2)CN1
How the values were obtained:
S375H mutant of gp120 = S375H mutant of gp120 (Human immunodeficiency virus type 1 group M subtype B, UniProt P35961, S370H); assay: SPR competition with gp120 mutant S375H; type: binding, HIV-1
HIV-1 gp120 = molecular target: T1, HIV-1 gp120 (Human immunodeficiency virus type 1 group M subtype B, UniProt P35961); type: binding; conditions: for Dual receptor site (CD4 and 17b) inhibition of gp120, in words: SPR competition
T1 construct: Expression and Purification of Wild-Type gp120YU-2; made in house; host or cells: HEK 293F
Method: SPR competition binding assays were used to assess the structural elements required for cyclic hexapeptide binding to gp120. […] In an attempt to restore the lost contact, the length of the two linkers was changed (Linker 1 and Linker 2 in FIG. 12).
SPR experiments were performed on a Biacore 3000 optical biosensor (GE Healthcare). All experiments were carried out at 25° C. using standard PBS buffer pH=7.4 with 0.005% surfactant Tween. A CM5 sensor chip was derivatized by standard 1-ethyl-3-(3-dimethylaminopropyl) carbodiimide (EDC)/N-hydroxysuccinimide (NHS) chemistry, and coupling was done through ligand amine groups. Antibody 2B6R (α-human IL5R) was immobilized for negative control surfaces. For competition experiments, soluble four domain CD4 and 17b antibody were immobilized on the surface through standard EDC/NHS chemistry. For kinetic analyses, typically 2000-3000 RUs of protein reagents were immobilized on SPR chips, and analytes were passed over the surface at 50-100 μL/min. Surface regeneration was achieved by a 5 μL injection of 10 mM HCl solution at 100 μL/min. […] Regeneration of the surface was achieved by a single 10 second pulse of 1.3 M NaCl/35 mM NaOH and single 5-second pulse of 10 mM glycine, pH 1.5, for sCD4 and mAb 17b, respectively. All analyses were performed in triplicate.
The inhibition curve was converted into a calibration curve by the use of a fitting function. The fitting was done using the 4-parameter Equation (1) from BIAevaluation software,
The cyclic peptides of the invention were tested against HIV-1 gp120 by SPR competition assays as described elsewhere herein. A mixture of the cyclic peptide/gp120 solutions was passed over SPR chip immobilized with CD4 and 17b separately. The competition assay evaluated the ability of each peptide to inhibit the binding between gp120 and both soluble CD4 and 17b antibody, a surrogate for co-receptor.

S375W mutant of gp120 = S375W mutant of gp120 (Human immunodeficiency virus type 1 group M subtype B, UniProt P35961, S370W); assay: SPR competition with gp120 mutant S375W; type: binding, HIV-1
tissue explants model = conditions: concentrations up to 100 μM; cited from earlier work
[1] = test system: HIV-1 subtype A, B and C isolates; conditions: read-out: IC50 range, neutralization of viral infection; cited from earlier work
monomeric gp120 = monomeric gp120 (Human immunodeficiency virus type 1 group M subtype B, UniProt P35961); conditions: read-out: KD, binding to monomeric gp120; cited from earlier work
[2] = test system: viruses pseudotyped with VSV-G; conditions: cited from earlier work
HIV-1 JR-FL pseudovirus = assay: Inhibition of HIV-1 infection against JR-FL (HOS.T4.R5 cells, luciferase); type: cell-based
[3] = molecular target: T2, Trypsin (from bovine pancreas) (Bos taurus, UniProt P00760); assay: In vitro proteolytic stability, trypsin; conditions: 5 h incubation, 37° C.
T2 sequence (P00760 24-246): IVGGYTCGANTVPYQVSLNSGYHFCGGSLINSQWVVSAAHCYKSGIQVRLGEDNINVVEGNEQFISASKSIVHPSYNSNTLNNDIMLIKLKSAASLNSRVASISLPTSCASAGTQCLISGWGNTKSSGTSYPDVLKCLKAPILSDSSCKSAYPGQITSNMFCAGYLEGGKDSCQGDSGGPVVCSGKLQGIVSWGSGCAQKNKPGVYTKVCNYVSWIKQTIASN

[4] = molecular target: Chymotrypsin (bovine pancreas) (Bos taurus, UniProt P00766); assay: In vitro proteolytic stability, chymotrypsin
HIV-1 Bal.01 pseudovirus = assay: Inhibition of HIV-1 infection against Bal.01 (HOS.T4.R5 cells, luciferase); type: cell-based

CC[C@H](C)[C@H](N)C(=O)N[C@H]1CCC(=O)NCCCC[C@@H](C(N)=O)NC(=O)[C@H](Cc2c[nH]c3ccccc23)NC(=O)[C@@H]2C[C@H](n3cc(CCc4ccccc4)nn3)CN2C(=O)[C@H]([C@@H](C)CC)NC(=O)[C@H](CC(N)=O)NC1=O [AAR024, (3S,6S,15S,18S,21S,25S,26aS)-3-((1H-indol-3-yl)methyl)-18-(2-amino-2-oxoethyl)-15-((2S,3S)-2-amino-3-methylpentanamido)-21-((S)-sec-butyl)-1,4,12,16,19,22-hexaoxo-25-(4-phenethyl-1H-1,2,3-triazol-1-yl)hexacosahydropyrrolo[2,1-f][1,4,7,10,13,19]hexaazacyclotetracosine-6-carboxamide] (H-IENI[Pro(cis-4-Trz(4-CH2CH2Ph))]WK-NH2; lactam 2-7)
Activity against S375H mutant of gp120 (S375H mutant of gp120): inactive | fold more active than the linear analogue (HIV-1 gp120): > 40 fold | Dual receptor site (CD4 and 17b) inhibition of gp120, in words (HIV-1 gp120): retained the dual receptor site inhibitory signature of linear PTs; also recorded: dual inhibitors | Activity against S375W mutant of gp120 (S375W mutant of gp120): inactive

(S)-4-((S)-2-((S)-2-((2S,4S)-1-(L-arginyl-L-isoleucyl-L-asparaginyl-L-asparaginyl-L-alloisoleucyl)-4-(4-ferrocenyl-1H-1,2,3-triazol-1-yl)pyrrolidine-2-carboxamido)-3-(1H-indol-3-yl)propanamido)-3-hydroxypropanamido)-5-(((S)-1-(((S)-1-(((S)-1-amino-4-(methylthio)-1-oxobutan-2-yl)amino)-4-(methylthio)-1-oxobutan-2-yl)amino)-1-oxopropan-2-yl)amino)-5-oxopentanoic acid [HNG156]
Toxicity in tissue explants model (tissue explants model): no detectable toxicity | IC50 [1]: 80 to 62500 nM | Kd (monomeric gp120): 7 nM | Neutralization of VSV-G pseudotyped viruses, in words [2]: not

CC[C@H](C)[C@@H]1NC(=O)[C@H](CC(N)=O)NC(=O)[C@@H](N)CC(=O)NCCCC[C@@H](C(N)=O)NC(=O)[C@H](Cc2c[nH]c3ccccc23)NC(=O)[C@@H]2C[C@H](n3cc(CCc4ccccc4)nn3)CN2C1=O [AAR029, (3S,6S,14S,17S,20S,24S,25aS)-3-((1H-indol-3-yl)methyl)-14-amino-17-(2-amino-2-oxoethyl)-20-((S)-sec-butyl)-1,4,12,15,18,21-hexaoxo-24-(4-phenethyl-1H-1,2,3-triazol-1-yl)tetracosahydro-1H-pyrrolo[2,1-f][1,4,7,10,13,18]hexaazacyclotricosine-6-carboxamide] (H-DNI[Pro(cis-4-Trz(4-CH2CH2Ph))]WK-NH2; lactam 1-6)
fold enhanced activity vs AAR029b (HIV-1 gp120): ~2 fold | fold more active than the linear analogue (HIV-1 gp120): > 200 fold | Dual receptor site (CD4 and 17b) inhibition of gp120, in words (HIV-1 gp120): dual inhibitors | Infection inhibition against JR-FL, in words (HIV-1 JR-FL pseudovirus): inhibiting activity | Resistance to trypsin, in words [3]: completely resistant | State after chymotrypsin treatment, in words ([4]; 30 min incubation, 37° C.): almost unchanged | Resistance to chymotrypsin, in words ([4]; 5 h incubation, 37° C.): completely resistant | Intactness after chymotrypsin digestion, in words ([4]; 40 h incubation, HPLC and ESI-MS): remained intact | Time the peptide remained stable ([4]; in the presence of trypsin and chymotrypsin, 37° C., pH 8.2): > 40 h | Infection inhibition against Bal.01, in words (HIV-1 Bal.01 pseudovirus): inhibiting activity
